Read-outs that look alike come from different tables or passages of the source.

The experiment deals with hTRPV3 (Homo sapiens (Human), UniProt Q8NET8). In words: Whole-cell patch clamp, hTRPV3 Phase 1 / Phase 2 currents. The experiment is classed as cell-based. In outline: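 Whole-cell recordings on induced TRPV3 cells replated on coverslips, held at −40 mV with 400 ms ramps from −120 to +100 mV every 5 s; currents read at −80 and +80 mV. Ringer's external solution; current activated by heating to ≥28 °C or 20 μM 2-APB.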

Where [1] appears, read: Phase 2 current, inward, whole-cell patch clamp, read-out: hTRPV3 Patch P2 Inwd.
Setting [2] is: Phase 2 current, read-out: hTRPV3 (nM) (Phase 2).
Setting [3] is: Phase 1 current, inward, whole-cell patch clamp, read-out: hTRPV3 Patch P1 Inwd.
[4] abbreviates: Phase 1 current, read-out: hTRPV3 (nM) (Phase 1).
[5] abbreviates: Phase 1 current, human TRPV3, read-out: hTRPV3 (nM) Phase 1.

Sequence of hTRPV3 (Q8NET8 whole entry): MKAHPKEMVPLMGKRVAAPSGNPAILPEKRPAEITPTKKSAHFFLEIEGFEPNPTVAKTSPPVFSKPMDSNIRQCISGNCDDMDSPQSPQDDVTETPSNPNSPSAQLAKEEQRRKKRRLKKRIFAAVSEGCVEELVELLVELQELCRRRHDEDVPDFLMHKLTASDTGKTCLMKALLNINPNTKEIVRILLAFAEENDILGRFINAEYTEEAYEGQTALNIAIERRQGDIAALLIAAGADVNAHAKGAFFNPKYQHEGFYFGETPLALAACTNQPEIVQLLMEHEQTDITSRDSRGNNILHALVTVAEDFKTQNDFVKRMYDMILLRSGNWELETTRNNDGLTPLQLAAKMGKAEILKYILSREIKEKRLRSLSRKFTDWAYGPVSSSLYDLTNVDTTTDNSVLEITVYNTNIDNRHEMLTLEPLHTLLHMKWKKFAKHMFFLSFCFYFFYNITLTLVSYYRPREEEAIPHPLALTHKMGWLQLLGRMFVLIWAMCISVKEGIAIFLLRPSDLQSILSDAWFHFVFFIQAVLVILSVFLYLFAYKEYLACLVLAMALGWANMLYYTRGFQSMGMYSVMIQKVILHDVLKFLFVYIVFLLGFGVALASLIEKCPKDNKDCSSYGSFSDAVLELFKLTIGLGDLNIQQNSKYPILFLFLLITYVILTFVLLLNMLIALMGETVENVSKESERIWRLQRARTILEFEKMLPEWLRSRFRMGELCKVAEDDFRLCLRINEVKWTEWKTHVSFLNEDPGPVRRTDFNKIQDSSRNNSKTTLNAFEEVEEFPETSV

Regarding `NC(=O)c1cc(-c2ccccc2)ccc1N1CC[C@H](Nc2ncccc2Cl)C1` [Compound 1-373, (S)-4-(3-(3-chloropyridin-2-ylamino)pyrrolidin-1-yl)biphenyl-3-carboxamide], the IC50 is 100 to 1000 nM under setting [1] and 669 nM under setting [2].
For the compound `NC(=O)c1cc(-c2ccccc2)cnc1N1CC[C@H](Nc2ccc(C(F)(F)F)cn2)C1` [Compound 1-374, (S)-5-phenyl-2-(3-(5-(trifluoromethyl)pyridin-2-ylamino)pyrrolidin-1-yl)nicotinamide], the IC50 reads like this: under setting [3], more than 1000 nM; under setting [4], more than 3200 nM; under setting [1], more than 1000 nM; under setting [2], more than 3200 nM.
Consider `NC(=O)c1cc(-c2ccccn2)ccc1N1CC[C@H](Nc2ccc(C(F)(F)F)cn2)C1` [Compound 1-376, (S)-5-(pyridin-2-yl)-2-(3-(5-(trifluoromethyl)pyridin-2-ylamino)pyrrolidin-1-yl)benzamide], for which the IC50 was more than 1000 nM under setting [3], more than 3200 nM under setting [4], more than 1000 nM under setting [1] and more than 3200 nM under setting [2].
Consider `NC(=O)c1cc(-c2ccccc2)cnc1N1CC[C@@H](Nc2ccc(C(F)(F)F)cn2)C1` [Compound 1-378, (R)-5-phenyl-2-(3-(5-(trifluoromethyl)pyridin-2-ylamino)pyrrolidin-1-yl)nicotinamide], for which the IC50 is more than 1000 nM under setting [3], more than 3200 nM under setting [4], more than 1000 nM under setting [1] and more than 3200 nM under setting [2].
As to `Cc1ccccc1-c1ccc(N2CC[C@H](Nc3ccc(C(F)(F)F)cn3)C2)c(CO)n1` [Compound 1-379, (S)-(6-o-tolyl-3-(3-(5-(trifluoromethyl)pyridin-2-ylamino)pyrrolidin-1-yl)pyridin-2-yl)methanol], the IC50 was more than 1000 nM under setting [3], more than 3200 nM under setting [4], more than 1000 nM under setting [1] and more than 3200 nM under setting [2].
Take `CCc1ccccc1C(=O)c1ccc(N2CC[C@H](Nc3ncccc3Cl)C2)c(CO)c1` [Compound 1-384, (S)-(4-(3-(3-chloropyridin-2-ylamino)pyrrolidin-1-yl)-3-(hydroxymethyl)phenyl)(2-ethylphenyl)methanone]: the IC50 by setting is: under setting [3], 100 to 1000 nM; under setting [4], 495 nM.
With `CCc1ccccc1C(O)c1ccc(N2CC[C@H](Nc3ncccc3Cl)C2)c(CCO)c1` (stereo partly drawn) [Compound 1-385, 2-(2-((S)-3-(3-chloropyridin-2-ylamino)pyrrolidin-1-yl)-5-((2-ethylphenyl)(hydroxy)methyl)phenyl)ethanol], the IC50 under setting [3] is more than 1000 nM and the IC50 under setting [4] was more than 3200 nM.
Regarding `CCc1ccccc1C(O)c1ccc(N2CC[C@H](Nc3ncccc3Cl)C2)c(CO)c1` (stereo partly drawn) [Compound 1-386, (4-((S)-3-(3-chloropyridin-2-ylamino)pyrrolidin-1-yl)-3-(hydroxymethyl)phenyl)(2-ethylphenyl)methanol], the IC50 by setting is: under setting [3], more than 1000 nM; under setting [4], approximately 1260 nM; under setting [1], more than 1000 nM; under setting [2], approximately 2150 nM.
As for `CCc1ccccc1C(=O)c1ccc(N2CC[C@H](Nc3ncccc3Cl)C2)c(CCO)c1` [Compound 1-387, (S)-(4-(3-(3-chloropyridin-2-ylamino)pyrrolidin-1-yl)-3-(2-hydroxyethyl)phenyl)(2-ethylphenyl)methanone], the IC50 reads like this: under setting [3], more than 1000 nM; under setting [4], 1630 nM.
For `O=C(c1ccc(Cl)cc1)c1ccc(N2CC[C@H](Nc3ccc(F)cn3)C2)c(CCO)c1` [Compound 1-388, (S)-(4-chlorophenyl)(4-(3-(5-fluoropyridin-2-ylamino)pyrrolidin-1-yl)-3-(2-hydroxyethyl)phenyl)methanone], the IC50 by setting is: under setting [3], more than 1000 nM; under setting [4], more than 3200 nM.
For `O=C(c1ccc(N2CC[C@H](Nc3ccc(F)cn3)C2)c(CCO)c1)c1ccccc1Cl` [Compound 1-389, (S)-(2-chlorophenyl)(4-(3-(5-fluoropyridin-2-ylamino)pyrrolidin-1-yl)-3-(2-hydroxyethyl)phenyl)methanone], in that order: more than 1000 nM and more than 3200 nM.
`OCCc1cc(C(O)c2ccc(Cl)cc2)ccc1N1CC[C@H](Nc2ccc(F)cn2)C1` (stereo partly drawn) [Compound 1-391, 2-(5-((4-chlorophenyl)(hydroxy)methyl)-2-((S)-3-(5-fluoropyridin-2-ylamino)pyrrolidin-1-yl)phenyl)ethanol]: the IC50 under setting [3] was more than 1000 nM and the IC50 under setting [4] is more than 3200 nM.
Consider `OCCc1cc(C(O)c2cccc(Cl)c2)ccc1N1CC[C@H](Nc2ccc(F)cn2)C1` (stereo partly drawn) [Compound 1-392, 2-(5-((3-chlorophenyl)(hydroxy)methyl)-2-((S)-3-(5-fluoropyridin-2-ylamino)pyrrolidin-1-yl)phenyl)ethanol], for which the IC50 was more than 1000 nM under setting [3] and more than 3200 nM under setting [4].
`O=C(c1cccc(Cl)c1)c1ccc(N2CC[C@H](Nc3ccc(F)cn3)C2)c(CCO)c1` [Compound 1-393, (S)-(3-chlorophenyl)(4-(3-(5-fluoropyridin-2-ylamino)pyrrolidin-1-yl)-3-(2-hydroxyethyl)phenyl)methanone]: the IC50 is, setting by setting: under setting [3], more than 1000 nM; under setting [4], approximately 2950 nM; under setting [1], more than 1000 nM; under setting [2], more than 3200 nM.
In the case of `OCc1nc(-c2ccccc2)ccc1N1CC[C@H](Oc2nc(C(F)(F)F)cs2)C1` [Compound 1-396, (S)-(6-phenyl-3-(3-(4-(trifluoromethyl)thiazol-2-yloxy)pyrrolidin-1-yl)pyridin-2-yl)methanol], the IC50 reads like this: under setting [3], more than 1000 nM; under setting [4], 1130 nM; under setting [1], more than 1000 nM; under setting [2], 2900 nM.
Turning to `OCc1cc(-c2ccccc2)ccc1N1CC[C@H](Oc2ccc(C(F)(F)F)nn2)C1` [Compound 1-397, (S)-(4-(3-(6-(trifluoromethyl)pyridazin-3-yloxy)pyrrolidin-1-yl)biphenyl-3-yl)methanol], the IC50 under setting [3] was more than 1000 nM, the IC50 under setting [4] came to 2740 nM, the IC50 under setting [1] was more than 1000 nM and the IC50 under setting [2] worked out at 1370 nM.
Take `Cc1cccnc1CO[C@H]1CCN(c2ccc(-c3ccccc3)cc2CO)C1` [Compound 1-399]: the IC50 is, setting by setting: under setting [4], more than 3200 nM; under setting [2], 481 nM.
With `Cc1cccc(C(O)c2ccc(C3CCN(C(=O)c4ncccc4Cl)C3)c(CO)c2)c1` (stereo not shown) [Compound 2-2, (3-chloropyridin-2-yl)(3-(4-(hydroxy(m-tolyl)methyl)-2-(hydroxymethyl)phenyl)pyrrolidin-1-yl)methanone], the IC50 under setting [3] fell in the range of 100 to 1000 nM.
Turning to `O=C(c1ncccc1Cl)N1CCC(c2ccc(C(O)c3ccc(F)cc3)cc2CO)C1` (stereo not shown) [Compound 2-4, (3-chloropyridin-2-yl)(3-(4-((4-fluorophenyl)(hydroxy)methyl)-2-(hydroxymethyl)phenyl)pyrrolidin-1-yl)methanone], the IC50 reads like this: under setting [5], more than 3200 nM; under setting [3], more than 1000 nM.
On to `O=C(c1ncccc1Cl)N1CCC(c2ccc(C(O)c3ccccc3F)cc2CO)C1` (stereo not shown) [Compound 2-5, (3-chloropyridin-2-yl)(3-(4-((2-fluorophenyl)(hydroxy)methyl)-2-(hydroxymethyl)phenyl)pyrrolidin-1-yl)methanone], for which the IC50 runs as follows: under setting [5], more than 3200 nM; under setting [3], more than 1000 nM.
Take `Cc1ccc(C(O)c2ccc(C3CCN(C(=O)c4ncccc4Cl)C3)c(CO)c2)cc1` (stereo not shown) [Compound 2-6, (3-chloropyridin-2-yl)(3-(4-(hydroxy(p-tolyl)methyl)-2-(hydroxymethyl)phenyl)pyrrolidin-1-yl)methanone]: the IC50 by setting is: under setting [5], more than 3200 nM; under setting [3], more than 1000 nM.
Regarding `Cc1ccc(C(=O)c2ccc(C3CCN(C(=O)c4ncccc4Cl)C3)c(CO)c2)cc1` (stereo not shown) [Compound 2-7], the IC50 under setting [5] was more than 3200 nM and the IC50 under setting [3] is more than 1000 nM.
For the compound `Cc1cccc(C(=O)c2ccc(C3CCN(C(=O)c4ncccc4Cl)C3)c(CO)c2)c1` (stereo not shown) [Compound 2-9, (4-(1-(3-chloropicolinoyl)pyrrolidin-3-yl)-3-(hydroxymethyl)phenyl)(m-tolyl)methanone], the IC50 was more than 3200 nM under setting [5] and more than 1000 nM under setting [3].
As to `O=C(c1ccc(F)cc1)c1ccc(C2CCN(C(=O)c3ncccc3Cl)C2)c(CO)c1` (stereo not shown) [Compound 2-10, (4-(1-(3-chloropicolinoyl)pyrrolidin-3-yl)-3-(hydroxymethyl)phenyl)(4-fluorophenyl)methanone], the IC50 by setting is: under setting [5], more than 3200 nM; under setting [3], more than 1000 nM.
With `O=C(c1ncccc1Cl)N1CCC(c2ccc(C(O)c3ccccc3Cl)cc2CO)C1` (stereo not shown) [Compound 2-11, (3-(4-((2-chlorophenyl)(hydroxy)methyl)-2-(hydroxymethyl)phenyl)pyrrolidin-1-yl)(3-chloropyridin-2-yl)methanone], the IC50 under setting [5] is more than 3200 nM and the IC50 under setting [3] is more than 1000 nM.
For the compound `CC(C)c1ccccc1Oc1ccc(C2CCN(C(=O)c3ccccn3)C2)c(CO)c1` (stereo not shown) [Compound 2-13, (3-(2-(hydroxymethyl)-4-(2-isopropylphenoxy)phenyl)pyrrolidin-1-yl)(pyridin-2-yl)methanone], the IC50 reads like this: under setting [5], 193 nM; under setting [3], 100 to 1000 nM.
Taken in the same sequence, the figures for `O=C(c1ccc(C2CCN(C(=O)c3ncccc3Cl)C2)c(CO)c1)c1ccccc1Cl` (stereo not shown) [Compound 2-14, (3-(4-(2-chlorobenzoyl)-2-(hydroxymethyl)phenyl)pyrrolidin-1-yl)(3-chloropyridin-2-yl)methanone] were more than 3200 nM and more than 1000 nM.
Taken in the same sequence, the figures for `CCc1ccccc1C(=O)c1ccc(C2CCN(C(=O)c3ncccc3Cl)C2)c(CO)c1` (stereo not shown) [Compound 2-15, (4-(1-(3-chloropicolinoyl)pyrrolidin-3-yl)-3-(hydroxymethyl)phenyl)(2-ethylphenyl)methanone] were more than 3200 nM and more than 1000 nM.
With `Cc1cccc(C(=O)N2CCC(c3ccc(Oc4ccccc4C(C)C)cc3CO)C2)n1` (stereo not shown) [Compound 2-19, (3-(2-(hydroxymethyl)-4-(2-isopropylphenoxy)phenyl)pyrrolidin-1-yl)(6-methylpyridin-2-yl)methanone], the IC50 under setting [5] turned out to be 191 nM and the IC50 under setting [3] lay within 10 to 100 nM.

These data come from US12435061B2 (priority 2020, dated 2025).
